# Test results taken from US7511146B2, “2-substituted benzimidazole piperidines analogs as selective melanin concentrating hormone receptor antagonists for the treatment of obesity and related disorders” (Schering Corporation, priority 2003, dated 2009).
# pKi: −log10 of the molar value.
# Target: T1, MCH receptor (Homo sapiens, UniProt Q99705)
# T1 construct: expressed in transfected cells; host or cells: CHO cells
# Experiment: MCH Receptor Binding Assay ([125I]-MCH, SPA, membranes from CHO cells expressing the MCH receptor)
# Details: [125I]-MCH displacement, CHO cell membranes; read-out: Class (Ki, MCH receptor binding)
# Protocol: MCH Receptor Binding Assay:
# Membranes from CHO cells expressing the MCH receptor were prepared by lysing cells with 5 mM HEPES for 15 min at 4C. Cell lysates were centrifuged ([…], 15 min) and the pellet was resuspended in 5 mM HEPES. For each 96-well plate (Microlite, Dynex Technologies), 1 mg of cell membranes were incubated with 10 mg of wheat germ agglutinin SPA beads (Amersham) for 5 min at 4 C in a volume of 10 ml of binding buffer (25 mM HEPES, 10 mM MGCl2, 10 mM NaCl, 5 mM MnCl2, 0.1% BSA). The membrane/bead mixture was centrifuged (1500×g, 3.5 min), the supernatant was aspirated, and the pellet was resuspended in 10 ml binding buffer. The centrifugation, aspiration and resuspension were then repeated. The membrane/bead mixture (100 μl) was then added to 96-well plates containing 50 μl of 500 pM [^125I]-MCH (NEN) and […] of the appropriate concentration of compound (4× the desired final concentration). Nonspecific binding was determined by including 1 μM MCH in the binding reaction. The binding reaction was incubated at room temperature for 2 h. Plates were then analyzed in a TOPCOUNT microplate scintillation counter (Packard). Data was analyzed and Ki values were determined using GraphPad Prism.
# T1 sequence (Q99705 whole entry): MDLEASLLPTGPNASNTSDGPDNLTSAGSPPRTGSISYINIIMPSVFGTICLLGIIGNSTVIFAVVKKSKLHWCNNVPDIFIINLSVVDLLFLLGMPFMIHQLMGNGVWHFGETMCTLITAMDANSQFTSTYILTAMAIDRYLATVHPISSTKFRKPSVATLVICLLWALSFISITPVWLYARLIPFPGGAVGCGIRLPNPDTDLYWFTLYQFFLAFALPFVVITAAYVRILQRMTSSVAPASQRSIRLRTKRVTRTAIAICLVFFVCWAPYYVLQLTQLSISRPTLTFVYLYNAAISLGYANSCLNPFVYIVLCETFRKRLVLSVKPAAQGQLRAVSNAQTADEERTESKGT
row,SMILES,pKi
1,"N#Cc1cccc(-c2ccc(C3(COc4nc5cc(Cl)c(Cl)cc5[nH]4)CCN(CC4CC4)CC3)cc2)c1 [Compound 57, 4′-[1-Cyclopropylmethyl-4-(5,6-dichloro-1H-benzoimidazol-2-yloxymethyl)-piperidin-4-yl]-biphenyl-3-carbonitrile]",7.00 to 7.30
2,"CC(C)(C)OC(=O)N1CCC(COc2nc3cc(Cl)c(Cl)cc3[nH]2)(c2ccc(-c3cccc(C#N)c3)cc2)CC1 [Compound 53, 4-(3′-cyano-biphenyl-4-yl)-4-(5,6-dichloro-1H-benzoimidazol-2-yloxymethyl)-piperidine-1-carboxylic acid tert-butyl ester]",< 7.00
3,CC(C)(C)OC(=O)N1CCC(C(NCc2nc3cc(F)c(Cl)cc3[nH]2)c2ccc(-c3cccc(C#N)c3)cc2)CC1 (centres unmarked) [Compound 15B],7.30 to 7.70
4,COC(=O)N1CCC(CNc2nc3cc(F)c(F)cc3[nH]2)(c2ccc(-c3cccc(C#N)c3)cc2)CC1 [Compound 8D],< 7.00
5,N#Cc1cccc(-c2ccc(C3(CCc4nc5cc(F)c(F)cc5[nH]4)CCN(CC4CC4)CC3)cc2)c1 [Compound 11A],< 7.00
6,N#Cc1cccc(-c2ccc(C3(CCc4nc5cc(Cl)c(F)cc5[nH]4)CCN(CC4CC4)CC3)cc2)c1 [Compound 11C],< 7.00
7,N#Cc1cccc(-c2ccc(C3(CNc4nc5cc(F)c(F)cc5[nH]4)CCN(C4CCC4)CC3)cc2)c1 [Compound 8C],7.30 to 7.70
8,N#Cc1cccc(-c2ccc(C3(CNc4nc5cc(F)c(F)cc5[nH]4)CCNCC3)cc2)c1 [Compound 8A],7.30 to 7.70
9,CC(C)(C)OC(=O)N1CCC(C(NCc2nc3cc(Cl)c(Cl)cc3[nH]2)c2ccc(-c3cccc(C#N)c3)cc2)CC1 (centres unmarked) [Compound 15A],7.00 to 7.30
10,N#Cc1cccc(-c2ccc(C(NCc3nc4cc(Cl)c(F)cc4[nH]3)C3CCNCC3)cc2)c1 (centres unmarked) [Compound 16B],7.30 to 7.70
11,"N#Cc1cccc(-c2ccc(C3(COc4nc5cc(Cl)c(Cl)cc5[nH]4)CCNCC3)cc2)c1 [Compound 54, 4′-[4-(5,6-Dichloro-1H-benzoimidazol-2-yloxymethyl)-piperidin-4-yl]-biphenyl-3-carbonitrile]",7.00 to 7.30
12,CC(=O)N1CCC(C(OCc2nc3cc(Cl)c(Cl)cc3[nH]2)c2ccc(-c3cccc(C#N)c3)cc2)CC1 (centres unmarked) [Compound 44],< 7.00
13,N#Cc1cccc(-c2ccc(C(NCc3nc4cc(Cl)c(Cl)cc4[nH]3)C3CCNCC3)cc2)c1 (centres unmarked) [Compound 16A],> 7.70
14,"CCNC(=O)N1CCC(COc2nc3cc(Cl)c(Cl)cc3[nH]2)(c2ccc(-c3cccc(C#N)c3)cc2)CC1 [Compound 58, 4-(3′-Cyano-biphenyl-4-yl)-4-(5,6-dichloro-1H-benzoimidazol-2-yloxymethyl)-piperidine-1-carboxylic acid ethylamide]",< 7.00
15,N#Cc1cccc(-c2ccc(C(OCc3nc4cc(F)c(Cl)cc4[nH]3)C3CCNCC3)cc2)c1 (centres unmarked) [Compound 33],7.30 to 7.70
16,N#Cc1cccc(-c2ccc(C(CSc3nc4cc(F)c(Cl)cc4[nH]3)C3CCNCC3)cc2)c1 (centres unmarked) [Compound 48],< 7.00
17,N#Cc1cccc(-c2ccc(C3(CCc4nc5cc(Cl)c(F)cc5[nH]4)CCNCC3)cc2)c1 [Compound 11B],< 7.00
18,"CC(C)(C)OC(=O)N1CCC(OCc2nc3cc(F)c(F)cc3[nH]2)(c2ccc(-c3cccc(C#N)c3)cc2)CC1 [Compound 63, 4-(3′-Cyano-biphenyl-4-yl)-4-(5,6-difluoro-1H-benzoimidazol-2-ylmethoxy)-piperidine-1-carboxylic acid tert-butyl ester]",< 7.00
19,N#Cc1cccc(-c2ccc(C3(CNc4nc5cc(F)c(F)cc5[nH]4)CCN(CC4CC4)CC3)cc2)c1 [Compound 8B],7.30 to 7.70
20,"CS(=O)(=O)N1CCC(COc2nc3cc(Cl)c(Cl)cc3[nH]2)(c2ccc(-c3cccc(C#N)c3)cc2)CC1 [Compound 56, 4′-[4-(5,6-Dichloro-1H-benzoimidazol-2-yloxymethyl)-1-methanesulfonyl-piperidin-4-yl]-biphenyl-3-carbonitrile]",< 7.00
21,CS(=O)(=O)N1CCC(C(OCc2nc3cc(Cl)c(Cl)cc3[nH]2)c2ccc(-c3cccc(C#N)c3)cc2)CC1 (centres unmarked) [Compound 39],< 7.00

# The remaining lines, values ahead:
row,pKi,SMILES
1,< 7.00,N#Cc1cccc(-c2ccc(C3(NCc4nc5ccccc5[nH]4)CCN(C4CCCC4)CC3)cc2)c1 [Compound 67B]
2,7.00 to 7.30,N#Cc1cccc(-c2ccc(C(CCc3nc4cc(Cl)c(Cl)cc4[nH]3)C3CCN(Cc4ccccc4)CC3)cc2)c1 (centres unmarked) [Compound 75A]
3,7.30 to 7.70,N#Cc1cccc(-c2ccc(C(OCc3nc4cc(F)c(Cl)cc4[nH]3)C3CCN(CC4CC4)CC3)cc2)c1 (centres unmarked) [Compound 34A]
4,< 7.00,"N#Cc1cccc(-c2ccc(C3(NCc4nc5cc(Cl)c(Cl)cc5[nH]4)CCN(C4CCCC4)CC3)cc2)c1 [Compound 67A, 4′-{1-Cyclopentyl-4-[(5,6-dichloro-1H-benzoimidazol-2-ylmethyl)-amino]-piperidin-4-yl}-biphenyl-3-carbonitrile]"
5,> 7.70,N#Cc1cccc(-c2ccc(C(NCc3nc4cc(Cl)c(F)cc4[nH]3)C3CCN(CC4CC4)CC3)cc2)c1 (centres unmarked) [Compound 17A]
6,7.30 to 7.70,N#Cc1cccc(-c2ccc(C(NCc3nc4cc(Cl)c(F)cc4[nH]3)C3CCN(C4CCCC4)CC3)cc2)c1 (centres unmarked) [Compound 17B]
7,< 7.00,N#Cc1cccc(-c2ccc(C(OCc3nc4cc(F)c(Cl)cc4[nH]3)C3CCN(CCCCCO)CC3)cc2)c1 (centres unmarked) [Compound 34D]
8,7.30 to 7.70,N#Cc1cccc(-c2ccc(C(OCc3nc4cc(F)c(Cl)cc4[nH]3)C3CCN(C4CCCC4)CC3)cc2)c1 (centres unmarked) [Compound 34C]
9,7.30 to 7.70,N#Cc1cccc(-c2ccc(C(CCc3nc4c(Cl)cc(Cl)cc4[nH]3)C3CCN(Cc4ccccc4)CC3)cc2)c1 (centres unmarked) [Compound 75C]
10,7.30 to 7.70,N#Cc1cccc(-c2ccc(C(OCc3nc4cc(F)c(Cl)cc4[nH]3)C3CCN(Cc4ccccc4)CC3)cc2)c1 (centres unmarked) [Compound 34B]
11,7.30 to 7.70,N#Cc1cccc(-c2ccc(C(CCc3nc4cc(Cl)c(F)cc4[nH]3)C3CCN(Cc4ccccc4)CC3)cc2)c1 (centres unmarked) [Compound 75B]
12,> 7.70,N#Cc1cccc(-c2ccc(C(CNc3nc4cc(Cl)c(Cl)cc4[nH]3)C3CCN(Cc4ccccc4)CC3)cc2)c1 (centres unmarked) [Compound 28A]
13,> 7.70,N#Cc1cccc(-c2ccc(C(CNc3nc4cc(F)c(F)cc4[nH]3)C3CCN(Cc4ccccc4)CC3)cc2)c1 (centres unmarked) [Compound 28B]

# Same assay, conditions: [125I]-MCH displacement, CHO cell membranes; read-out: Ki value
row,pKi,SMILES
1,8.52,N#Cc1cccc(-c2ccc(C(CNc3nc4cc(Cl)c(Cl)cc4[nH]3)C3CCN(Cc4ccccc4)CC3)cc2)c1 (centres unmarked) [Compound 28A]
